Source: US8871681B2, “Herbicidal compositions comprising 4-amino-3-chloro-5-fluoro-6-(4-chloro-2-fluoro-3-methoxyphenyl) pyridine-2-carboxylic acid or a derivative thereof and certain sulfonylureas” (Dow AgroSciences LLC, priority 2012, dated 2014)

Key:
[1] = tested on: SCPMA (Bolboschoenus maritimus or Schoenoplectus maritimus, sea clubrush); assay: In-water applied weed control, transplanted paddy rice, greenhouse (Example II); type: in vivo, Bolboschoenus maritimus (L.) Palla
Description: (§1) Weed seeds or nutlets of the desired test plant species were planted in puddled soil (mud) prepared by mixing a shredded, non-sterilized mineral soil (50.5 percent silt, 25.5 percent clay, and 24 percent sand, with a pH of about 7.6 and an organic matter content of about 2.9 percent) and water at a 1:1 volumetric ratio. The prepared mud was dispensed in 365 mL aliquots into 16-ounce (oz.) non-perforated plastic pots with a surface area of 86.59 square centimeters (cm^2) leaving a headspace of 3 centimeters (cm) in each pot. Rice seeds were planted in Sun Gro MetroMix® 306 planting mixture, which typically has a pH of 6.0 to 6.8 and an organic matter content of about 30 percent, in plastic plug trays. Seedlings at the second or third leaf stage of growth were transplanted into 860 mL of mud contained in 32-oz. non-perforated plastic pots with a surface area of 86.59 cm^2 4 days prior to herbicide application. The paddy was created by filling the headspace of the pots with 2.5 to 3 cm of water. When required to ensure good germination and healthy plants, a fungicide treatment and/or other chemical or physical treatment was applied. The plants were grown for 4-22 days in a greenhouse with an approximate 14 h photoperiod which was maintained at about 29′C during the day and 26° C. during the night. Nutrients were added as Osmocote® (19:6:12, N:P:K+minor nutrients) at 2 g per 16-oz. pot and 4 g per 32-oz. pot. Water was added on a regular basis to maintain the paddy flood, and supplemental lighting was provided with overhead metal halide 1000-Watt lamps as necessary. The plants were employed for testing when they reached the first through fourth true leaf stage.
(§2) Treatments consisted of the acid or esters of 4-amino-3-chloro-5-fluoro-6-(4-chloro-2-fluoro-3-methoxy-phenyl)pyridine-2-carboxylic acid (compound A) each formulated as an SC and various herbicidal components alone and in combination. Forms of compound A were applied on an acid equivalent basis.
(§3) Other herbicidal components were applied on an active ingredient basis and included acetolactate synthase (ALS)-inhibiting herbicides (sulfonylurea chemical class), azimsulfuron formulated as Gulliver®, bensulfuron-methyl formulated as Londax® 60DF, cyclosulfamuron (technical grade materail), ethoxysulfuron formulated as Sunrice® 15 WDG, flucetosulfuron formulated as Sukedachi® 1KG G, imazosulfuron formulated as Brazzos®, metsulfuron-methyl formulated as Lorate®, nicosulfuron formulated as Accent®, orthosulfamuron formulated as Strada® WG, propyrisulfuron formulated as Zeta One®, and rimsulfuron formulated as Matrix® WG.
(§4) Treatment requirements for each compound or herbicidal component were calculated based upon the rates being tested, the concentration of active ingredient or acid equivalent in the formulation, an application volume of 2 mL per component per pot, and an application area of 86.59 cm^2 per pot.
(§5) For formulated compounds, a measured amount was placed in an individual 100 or 200 mL glass vial and was dissolved in a volume of 1.25% (v/v) Agri-Dex® crop oil concentrate to obtain application solutions.
(§6) For technical grade compounds, a weighed amount was placed in an individual 100 to 200 mL glass vial and was dissolved in a volume of acetone to obtain concentrated stock solutions. […] The concentrated stock solutions obtained were diluted with an equivalent volume of an aqueous mixture containing 2.5% (v/v) crop oil concentrate so that the final application solutions contained 1.25% (v/v) crop oil concentrate.
(§7) Applications were made by injecting with a pipetter appropriate amounts of the application solutions, individually and sequentially, into the aqueous layer of the paddy. Control plants were treated in the same manner with the solvent blank. Applications were made so that all treated plant material received the same concentrations of acetone and crop oil concentrate. […]

[2] = tested on: LEFCH (Leptochloa chinensis, Chinese sprangletop); assay: Postemergence foliar-applied weed control, direct seeded rice, greenhouse (Example I); type: in vivo, Leptochloa chinensis (L.) Nees; conditions: Dinebra chinensis, post-emergence
Text: (§8) Seeds or nutlets of the desired test plant species were planted in a soil matrix prepared by mixing a loam or sandy loam soil (e.g., 28.6 percent silt, 18.8 percent clay, and 52.6 percent sand, with a pH of about 5.8 and an organic matter content of about 1.8 percent) and calcareous grit in an 80 to 20 ratio. The soil matrix was contained in plastic pots with a volume of 1 quart and a surface area of 83.6 square centimeters (cm^2). When required to ensure good germination and healthy plants, a fungicide treatment and/or other chemical or physical treatment was applied. The plants were grown for 8-22 days in a greenhouse with an approximate 14 h photoperiod which was maintained at about 29° C. during the day and 26° C. during the night. Nutrients (Peters Excel® 15-5-15 5-Ca 2-Mg and iron chelate) were applied in the irrigation solution as needed and water was added on a regular basis. Supplemental lighting was provided with overhead metal halide 1000-Watt lamps as necessary. The plants were employed for testing when they reached the first through fourth true leaf stage.
(§9) Treatments consisted of the acid or esters of 4-amino-3-chloro-5-fluoro-6-(4-chloro-2-fluoro-3-methoxy-phenyl)pyridine-2-carboxylic acid (Compound A), each formulated as an SC, and various herbicidal components alone and in combination. Forms of compound A were applied on an acid equivalent basis.
(§10) Other herbicidal components were applied on an active ingredient basis and included acetolactate synthase (ALS)-inhibiting herbicides (sulfonylurea chemical class) azimsulfuron formulated as Gulliver®, bensulfuron-methyl formulated as Londax® 60DF, cyclosulfamuron (technical material), ethoxysulfuron formulated as Sunrice® 15 WDG, flazasulfuron formulated as Katana®, flucetosulfuron formulated as Sukedachi® 1KG G, foramsulfuron formulated as Option®, imazosulfuron formulated as Brazzos® WG, iodosulfuron-methyl-sodium formulated as Hussar®, metsulfuron-methyl formulated as Lorate®, nicosulfuron formulated as Accent®, orthosulfamuron formulated as Strada® WG, primisulfuron-methyl (technical material), propyrisulfuron formulated as Zeta One®, rimsulfuron formulated as Matrix® WG, sulfometuron-methyl formulated as Oust®, and trifloxysulfuron-sodium formulated as Monument® 75WG.
(§11) Treatment requirements were calculated based upon the rates being tested, the concentration of active ingredient or acid equivalent in the formulation, and a 12 mL application volume at a rate of 187 L/ha.
(§12) For treatments comprised of formulated compounds, measured amounts of compounds were placed individually in 25 mL glass vials and diluted in a volume of 1.25% (v/v) Agri-Dex® crop oil concentrated to obtain 12× stock solutions. […] Application solutions were prepared by adding an appropriate amount of each stock solution (e.g., 1 mL) and diluted to the appropriate final concentrations with the addition of 10 mL of an aqueous mixture of 1.25% (v/v) crop oil concentrate so that the final spray solutions contained 1.25+/−0.05% (v/v) Agrcrop oil concentrate.
(§13) For treatments comprised of formulated and technical compounds, weighed amounts of the technical materials were placed individually in 25 mL glass vials and dissolved in a volume of 97:3 v/v acetone/DMSO to obtain 12× stock solutions, and measured amounts of the formulated compounds were placed individually in 25 mL glass vials and diluted in a volume of 1.25% (v/v) crop oil concentrate to obtain 12× stock solutions. […] Application solutions were prepared by adding an appropriate amount of each stock solution (e.g., 1 mL) and diluted to the appropriate final concentrations with the addition of an appropriate amount of an aqueous mixture of 1.5% (v/v) crop oil concentrate so that the final spray solutions contained 1.25% (v/v) crop oil concentrate. […]

[3] = tested on: BRAPP (Brachiaria platyphylla, broadleaf signalgrass); assay: as above; type: in vivo, Brachiaria platyphylla (Griseb.) Nash; conditions: Urochloa platyphylla, post-emergence, 480 h, 20 DAA, read-out: Visual Weed Control (%) Obs
Text: as §8, §9, §10, §11, §12, §13

[4] = tested on: ECHOR (Echinochloa oryzoides, early watergrass); assay: In-water applied weed control, transplanted paddy rice, greenhouse (Example II); type: in vivo, Echinochloa oryzoides (Ard.) Fritsch
Description: as §1, §2, §3, §4, §5, §6, §7

[5] = tested on: CYPIR (Cyperus iria, rice flatsedge); assay: Postemergence foliar-applied weed control, direct seeded rice, greenhouse (Example I); type: in vivo, Cyperus iria L.; conditions: 22 DAA; 12.5 gai/ha
Text: as §8, §9, §10, §11, §12, §13

[6] = tested on: DIGSA (Digitaria sanguinalis, large crabgrass); assay: as above; type: in vivo, Digitaria sanguinalis (L.) Scop.
Text: as §8, §9, §10, §11, §12, §13

[7] = Table 28, second set, 25 gai/ha alone

## COc1cc(OC)nc(NC(=O)NS(=O)(=O)c2c(-c3nnn(C)n3)cnn2C)n1 [Azimsulfuron, N-[[(4,6-dimethoxy-2-pyrimidinyl)amino]carbonyl]-1-methyl-4-(2-methyl-2H-tetrazol-5-yl)-1H-pyrazole-5-sulfonamide, reference compound]
[1]; Table 28, 2.5 gai/ha alone
  Visual Weed Control (%) - 20 DAA SCPMA Obs: 70%
[1]; [7]
  Visual Weed Control (%) - 20 DAA SCPMA Obs: 85%
[1]; Table 29, 2.5 gai/ha alone
  Visual Weed Control (%) - 20 DAA SCPMA Obs: 70%
[1]; Table 29, 25 gai/ha alone
  Visual Weed Control (%) - 20 DAA SCPMA Obs: 85%
[2]; 480 h, 20 DAA, 3.125 gai/ha, read-out: Visual Weed Control (%) Obs
  pest or weed control at 3.125 g/ha: 0%
[2]; 480 h, 20 DAA, 6.25 gai/ha, read-out: Visual Weed Control (%) Obs
  pest or weed control at 6.25 g/ha: 0%
[3]; 3.125 gai/ha
  pest or weed control at 3.125 g/ha: 0%
[3]; 6.25 gai/ha
  pest or weed control at 6.25 g/ha: 0%
[3]; 12.5 gai/ha
  pest or weed control at 12.5 g/ha: 60%
[4]; Table 28, 2.5 gai/ha alone
  Visual Weed Control (%) - 20 DAA ECHOR Obs: 0%
[4]; [7]
  Visual Weed Control (%) - 20 DAA ECHOR Obs: 60%
[4]; Table 29, 2.5 gai/ha alone
  Visual Weed Control (%) - 20 DAA ECHOR Obs: 0%
[4]; Table 29, 5 gai/ha alone
  Visual Weed Control (%) - 20 DAA ECHOR Obs: 20%
[4]; Table 29, 25 gai/ha alone
  Visual Weed Control (%) - 20 DAA ECHOR Obs: 60%
[4]; Table 30, 25 gai/ha alone
  Visual Weed Control (%) - 20 DAA ECHOR Obs: 60%

## COc1cc(OC)nc(NC(=O)NS(=O)(=O)Nc2ccccc2C(=O)C2CC2)n1 [Cyclosulfamuron, N-[[[2-(cyclopropylcarbonyl)phenyl]amino]sulfonyl]-N′-(4,6-dimethoxy-2-pyrimidinyl)urea, reference compound]
[1]; Table 33, 12.5 gai/ha alone
  Visual Weed Control (%) - 21 DAA SCPMA Obs: 75%
[5]
  Visual Weed Control (%) Obs: 95%

## COc1cc(OC)nc(NC(=O)NS(=O)(=O)c2cc(NC=O)ccc2C(=O)N(C)C)n1 [Foramsulfuron, 2-[[[[(4,6-dimethoxy-2-pyrimidinyl)amino]carbonyl]amino]sulfonyl]-4-(formylamino)-N,N-dimethylbenzamide]
[2]; 504 h, 21 DAA, 20 gai/ha, read-out: Visual Weed Control (%) Obs
  pest or weed control at 20 g/ha: 0%
[2]; 504 h, 21 DAA, 40 gai/ha, read-out: Visual Weed Control (%) Obs
  pest or weed control at 40 g/ha: 25%

## COC(=O)c1ccccc1S(=O)(=O)NC(=O)Nc1nc(OC(F)F)cc(OC(F)F)n1 [Primisulfuron-methyl, methyl 2-[[[[[4,6-bis(difluoromethoxy)-2-pyrimidinyl]amino]carbonyl]amino]sulfonyl]benzoate]
[2]; 504 h, read-out: Visual Weed Control (%) Obs, 21 DAA, 15 gai/ha
  pest or weed control at 15 g/ha: 40%
[2]; 504 h, read-out: Visual Weed Control (%) Obs, 21 DAA, 30 gai/ha
  pest or weed control at 30 g/ha: 60%

## COC(=O)c1ccccc1S(=O)(=O)NC(=O)Nc1nc(C)cc(C)n1 [Sulfometuron-methyl, methyl 2-[[[[(4,6-dimethyl-2-pyrimidinyl)amino]carbonyl]amino]sulfonyl]benzoate, reference compound]
[6]; 22 DAA, 35 gai/ha
  Visual Weed Control (%) Obs: 85%

## COc1cc(OC)nc(NC(=O)[N-]S(=O)(=O)c2ncccc2OCC(F)(F)F)n1.[Na+] [Trifloxysulfuron-sodium]
[6]; Table 27, foliar-applied, 24 gai/ha alone
  Visual Weed Control (%) - 21 DAA DIGSA Obs: 65%
